Laboratory results from ChEMBL document CHEMBL4033775, “Natural-Products-Inspired Use of the gem-Dimethyl Group in Medicinal Chemistry” (J Med Chem, 2018).
In brackets after ≈: the same amount, converted by molar mass.

Columns and labels:
[1] = target: 72 kDa type IV collagenase (Homo sapiens, UniProt P08253); assay: Inhibition of MMP2 (unknown origin) expressed in Escherichia coli BL21(DE3) using Mca-Pro-Leu-Gly-Leu-Dpa-Ala-Arg-NH2 as substrate after 20 to 30 mins by spectrofluorimetric analysis
[2] = target: Interstitial collagenase (Homo sapiens, UniProt P03956); assay: Inhibition of human interstitial recombinant N-terminal MMP1 expressed in Escherichia coli BL21(DE3) using Mca-Pro-Leu-Gly-Leu-Dpa-Ala-Arg-NH2 as substrate after 20 to 30 mins by spectrofluorimetric analysis
[3] = target: Matrix metalloproteinase-9 (Homo sapiens, UniProt P14780); assay: Inhibition of MMP9 (unknown origin) expressed in Escherichia coli BL21(DE3) using Mca-Pro-Leu-Gly-Leu-Dpa-Ala-Arg-NH2 as substrate after 20 to 30 mins by spectrofluorimetric analysis
[4] = target: Collagenase 3 (Homo sapiens, UniProt P45452); assay: Inhibition of MMP13 (unknown origin) expressed in Escherichia coli BL21(DE3) using Mca-Pro-Leu-Gly-Leu-Dpa-Ala-Arg-NH2 as substrate after 20 to 30 mins by spectrofluorimetric analysis
[5] = target: T1, Matrilysin (Homo sapiens, UniProt P09237); assay: Inhibition of MMP7 (unknown origin) expressed in Escherichia coli BL21(DE3) using Mca-Pro-Leu-Gly-Leu-Dpa-Ala-Arg-NH2 as substrate after 20 to 30 mins by spectrofluorimetric analysis
T1 sequence (P09237 whole entry): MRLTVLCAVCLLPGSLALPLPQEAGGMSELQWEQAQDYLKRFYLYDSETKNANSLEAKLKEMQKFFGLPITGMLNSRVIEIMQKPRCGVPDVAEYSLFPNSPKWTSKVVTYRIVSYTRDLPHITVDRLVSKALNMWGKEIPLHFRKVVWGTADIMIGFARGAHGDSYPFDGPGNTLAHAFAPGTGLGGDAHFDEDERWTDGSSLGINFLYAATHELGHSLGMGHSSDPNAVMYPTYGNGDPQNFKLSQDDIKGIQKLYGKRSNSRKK

[6] = Aqueous solubility of the compound at physiological pH; type: physicochemical; conditions: buffer

Matrix metalloproteinase-9, sequence (P14780 whole entry): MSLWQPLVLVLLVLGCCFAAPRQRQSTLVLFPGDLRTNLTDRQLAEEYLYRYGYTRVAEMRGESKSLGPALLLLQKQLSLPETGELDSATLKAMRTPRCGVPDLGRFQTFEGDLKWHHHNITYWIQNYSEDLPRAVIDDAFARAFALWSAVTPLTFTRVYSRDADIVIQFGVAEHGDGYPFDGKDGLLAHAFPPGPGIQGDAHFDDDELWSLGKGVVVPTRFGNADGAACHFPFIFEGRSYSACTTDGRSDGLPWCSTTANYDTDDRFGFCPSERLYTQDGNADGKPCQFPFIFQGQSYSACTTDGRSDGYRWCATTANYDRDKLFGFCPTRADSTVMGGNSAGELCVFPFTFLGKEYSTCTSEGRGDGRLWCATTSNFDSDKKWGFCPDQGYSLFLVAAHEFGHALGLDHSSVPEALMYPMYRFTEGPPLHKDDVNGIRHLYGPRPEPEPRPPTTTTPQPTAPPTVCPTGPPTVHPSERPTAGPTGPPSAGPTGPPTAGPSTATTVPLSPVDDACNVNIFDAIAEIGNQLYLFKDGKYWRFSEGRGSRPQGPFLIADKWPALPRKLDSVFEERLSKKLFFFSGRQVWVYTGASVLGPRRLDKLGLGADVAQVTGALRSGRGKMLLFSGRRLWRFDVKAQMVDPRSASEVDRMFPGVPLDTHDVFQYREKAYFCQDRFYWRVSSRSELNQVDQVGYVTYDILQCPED
72 kDa type IV collagenase, sequence (P08253 whole entry): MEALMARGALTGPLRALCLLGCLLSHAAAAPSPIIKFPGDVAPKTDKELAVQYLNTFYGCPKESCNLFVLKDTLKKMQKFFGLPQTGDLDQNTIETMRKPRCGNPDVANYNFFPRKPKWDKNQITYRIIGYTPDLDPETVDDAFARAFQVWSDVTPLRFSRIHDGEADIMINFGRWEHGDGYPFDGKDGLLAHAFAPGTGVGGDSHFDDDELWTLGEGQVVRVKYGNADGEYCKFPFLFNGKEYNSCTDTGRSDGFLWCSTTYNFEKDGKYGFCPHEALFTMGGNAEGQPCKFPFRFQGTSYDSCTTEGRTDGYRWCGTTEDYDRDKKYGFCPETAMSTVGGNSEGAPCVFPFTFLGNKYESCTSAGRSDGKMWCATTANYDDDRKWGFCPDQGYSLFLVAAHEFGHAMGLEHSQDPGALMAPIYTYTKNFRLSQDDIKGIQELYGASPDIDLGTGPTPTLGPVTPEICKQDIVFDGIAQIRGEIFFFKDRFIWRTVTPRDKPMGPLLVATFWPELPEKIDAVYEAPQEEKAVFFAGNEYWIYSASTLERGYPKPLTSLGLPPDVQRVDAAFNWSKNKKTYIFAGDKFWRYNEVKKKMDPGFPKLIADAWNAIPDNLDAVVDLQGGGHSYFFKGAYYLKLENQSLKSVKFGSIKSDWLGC
Interstitial collagenase, sequence (P03956 whole entry): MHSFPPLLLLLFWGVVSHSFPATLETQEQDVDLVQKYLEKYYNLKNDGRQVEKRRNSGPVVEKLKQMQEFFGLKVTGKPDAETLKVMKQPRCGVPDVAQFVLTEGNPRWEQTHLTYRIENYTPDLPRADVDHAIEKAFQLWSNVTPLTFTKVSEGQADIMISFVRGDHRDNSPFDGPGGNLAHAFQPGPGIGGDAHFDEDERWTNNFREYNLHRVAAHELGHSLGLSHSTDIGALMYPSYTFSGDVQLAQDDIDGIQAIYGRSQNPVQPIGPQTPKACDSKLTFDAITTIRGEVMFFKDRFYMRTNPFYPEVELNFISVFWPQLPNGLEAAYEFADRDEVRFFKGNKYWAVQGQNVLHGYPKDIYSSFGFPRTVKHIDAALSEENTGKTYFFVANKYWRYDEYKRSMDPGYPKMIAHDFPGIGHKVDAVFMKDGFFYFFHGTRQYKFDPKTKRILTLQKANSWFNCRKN

Structure (SMILES) | IC50 [1] [nM] | IC50 [2] [nM] | IC50 [3] [nM] | IC50 [4] [nM] | IC50 [5] [nM] | solubility [6] [µg/mL]
COc1ccc(S(=O)(=O)N2CCSC(C)(C)C2C(=O)NO)cc1 (stereo unspecified) | 1.4 | 0.4 | 0.9 | 1 | 23 | 
COc1ccc(S(=O)(=O)N2CCCSC(C)(C)[C@@H]2C(=O)NO)cc1 |  |  |  |  |  | 800 (≈ 2140 µM)
